Measurements published in the NIST ThermoML archive (doi:10.1021/acs.jced.5b00537).
± gives the expanded uncertainty stated by the source.

Assay: xn = mol fraction of the nth substance listed
Details: 100 kPa, Liquid; for viscosity: Cone and plate viscometry; for mass density: Vibrating tube method

CCC(C)(C)O [2-methylbutan-2-ol] + CC(C)CO
viscosity (293.15 K, x1 = 0.101): 4.697 ± 0.2 mPa·s | viscosity (293.15 K, x1 = 0.2): 5.166 ± 0.2 mPa·s | viscosity (293.15 K, x1 = 0.301): 5.487 ± 0.2 mPa·s | viscosity (293.15 K, x1 = 0.4): 5.819 ± 0.2 mPa·s | viscosity (293.15 K, x1 = 0.5): 6.094 ± 0.2 mPa·s | viscosity (293.15 K, x1 = 0.599): 6.075 ± 0.2 mPa·s | viscosity (293.15 K, x1 = 0.7): 5.951 ± 0.2 mPa·s | viscosity (293.15 K, x1 = 0.8): 5.518 ± 0.2 mPa·s | viscosity (293.15 K, x1 = 0.9): 5.081 ± 0.2 mPa·s | viscosity (293.15 K, x1 = 1): 4.596 ± 0.2 mPa·s | mass density (293.15 K, x1 = 0.101): 803.58 ± 0.61 kg/m3 | mass density (293.15 K, x1 = 0.2): 805.09 ± 0.61 kg/m3 | mass density (293.15 K, x1 = 0.301): 806.61 ± 0.61 kg/m3 | mass density (293.15 K, x1 = 0.4): 807.99 ± 0.61 kg/m3 | mass density (293.15 K, x1 = 0.5): 809.31 ± 0.61 kg/m3 | mass density (293.15 K, x1 = 0.599): 810.29 ± 0.61 kg/m3 | mass density (293.15 K, x1 = 0.7): 810.83 ± 0.61 kg/m3 | mass density (293.15 K, x1 = 0.8): 810.82 ± 0.61 kg/m3 | mass density (293.15 K, x1 = 0.9): 810.12 ± 0.61 kg/m3 | mass density (293.15 K, x1 = 1): 808.77 ± 0.61 kg/m3 | viscosity (303.15 K, x1 = 0.101): 3.244 ± 0.2 mPa·s | viscosity (303.15 K, x1 = 0.2): 3.387 ± 0.2 mPa·s | viscosity (303.15 K, x1 = 0.301): 3.616 ± 0.2 mPa·s | viscosity (303.15 K, x1 = 0.4): 3.726 ± 0.2 mPa·s | viscosity (303.15 K, x1 = 0.5): 3.775 ± 0.2 mPa·s | viscosity (303.15 K, x1 = 0.599): 3.715 ± 0.2 mPa·s | viscosity (303.15 K, x1 = 0.7): 3.597 ± 0.2 mPa·s | viscosity (303.15 K, x1 = 0.8): 3.386 ± 0.2 mPa·s | viscosity (303.15 K, x1 = 0.9): 3.187 ± 0.2 mPa·s | viscosity (303.15 K, x1 = 1): 2.983 ± 0.2 mPa·s | mass density (303.15 K, x1 = 0.101): 795.96 ± 0.61 kg/m3 | mass density (303.15 K, x1 = 0.2): 797.22 ± 0.61 kg/m3 | mass density (303.15 K, x1 = 0.301): 798.63 ± 0.61 kg/m3 | mass density (303.15 K, x1 = 0.4): 799.87 ± 0.61 kg/m3 | mass density (303.15 K, x1 = 0.5): 800.87 ± 0.61 kg/m3 | mass density (303.15 K, x1 = 0.599): 801.55 ± 0.61 kg/m3 | mass density (303.15 K, x1 = 0.7): 801.84 ± 0.62 kg/m3 | mass density (303.15 K, x1 = 0.8): 801.61 ± 0.62 kg/m3 | mass density (303.15 K, x1 = 0.9): 800.89 ± 0.62 kg/m3 | mass density (303.15 K, x1 = 1): 799.74 ± 0.62 kg/m3 | viscosity (313.15 K, x1 = 0.101): 2.392 ± 0.2 mPa·s | viscosity (313.15 K, x1 = 0.2): 2.445 ± 0.2 mPa·s | viscosity (313.15 K, x1 = 0.301): 2.526 ± 0.2 mPa·s | viscosity (313.15 K, x1 = 0.4): 2.552 ± 0.2 mPa·s | viscosity (313.15 K, x1 = 0.5): 2.539 ± 0.2 mPa·s | viscosity (313.15 K, x1 = 0.599): 2.46 ± 0.2 mPa·s | viscosity (313.15 K, x1 = 0.7): 2.365 ± 0.2 mPa·s | viscosity (313.15 K, x1 = 0.8): 2.287 ± 0.2 mPa·s | viscosity (313.15 K, x1 = 0.9): 2.204 ± 0.2 mPa·s | viscosity (313.15 K, x1 = 1): 2.078 ± 0.2 mPa·s | mass density (313.15 K, x1 = 0.101): 788 ± 0.61 kg/m3 | mass density (313.15 K, x1 = 0.2): 789.04 ± 0.61 kg/m3 | mass density (313.15 K, x1 = 0.301): 790.24 ± 0.61 kg/m3 | mass density (313.15 K, x1 = 0.4): 791.21 ± 0.62 kg/m3 | mass density (313.15 K, x1 = 0.5): 791.89 ± 0.62 kg/m3 | mass density (313.15 K, x1 = 0.599): 792.32 ± 0.62 kg/m3 | mass density (313.15 K, x1 = 0.7): 792.36 ± 0.62 kg/m3 | mass density (313.15 K, x1 = 0.8): 792.06 ± 0.62 kg/m3 | mass density (313.15 K, x1 = 0.9): 791.35 ± 0.62 kg/m3 | mass density (313.15 K, x1 = 1): 790.35 ± 0.62 kg/m3 | viscosity (323.15 K, x1 = 0.101): 1.749 ± 0.2 mPa·s | viscosity (323.15 K, x1 = 0.2): 1.776 ± 0.2 mPa·s | viscosity (323.15 K, x1 = 0.301): 1.8 ± 0.2 mPa·s | viscosity (323.15 K, x1 = 0.4): 1.792 ± 0.2 mPa·s | viscosity (323.15 K, x1 = 0.5): 1.756 ± 0.2 mPa·s | viscosity (323.15 K, x1 = 0.599): 1.721 ± 0.2 mPa·s | viscosity (323.15 K, x1 = 0.7): 1.664 ± 0.2 mPa·s | viscosity (323.15 K, x1 = 0.8): 1.606 ± 0.2 mPa·s | viscosity (323.15 K, x1 = 0.9): 1.549 ± 0.2 mPa·s | viscosity (323.15 K, x1 = 1): 1.494 ± 0.2 mPa·s | mass density (323.15 K, x1 = 0.101): 779.8 ± 0.62 kg/m3 | mass density (323.15 K, x1 = 0.2): 780.62 ± 0.62 kg/m3 | mass density (323.15 K, x1 = 0.301): 781.62 ± 0.62 kg/m3 | mass density (323.15 K, x1 = 0.4): 782.29 ± 0.62 kg/m3 | mass density (323.15 K, x1 = 0.5): 782.77 ± 0.62 kg/m3 | mass density (323.15 K, x1 = 0.599): 782.89 ± 0.62 kg/m3 | mass density (323.15 K, x1 = 0.7): 782.77 ± 0.62 kg/m3 | mass density (323.15 K, x1 = 0.8): 782.3 ± 0.62 kg/m3 | mass density (323.15 K, x1 = 0.9): 781.58 ± 0.62 kg/m3 | mass density (323.15 K, x1 = 1): 780.66 ± 0.62 kg/m3 | viscosity (333.15 K, x1 = 0.101): 1.31 ± 0.2 mPa·s | viscosity (333.15 K, x1 = 0.2): 1.315 ± 0.2 mPa·s | viscosity (333.15 K, x1 = 0.301): 1.329 ± 0.2 mPa·s | viscosity (333.15 K, x1 = 0.4): 1.316 ± 0.2 mPa·s | viscosity (333.15 K, x1 = 0.5): 1.277 ± 0.2 mPa·s | viscosity (333.15 K, x1 = 0.599): 1.243 ± 0.2 mPa·s | viscosity (333.15 K, x1 = 0.7): 1.206 ± 0.2 mPa·s | viscosity (333.15 K, x1 = 0.8): 1.164 ± 0.2 mPa·s | viscosity (333.15 K, x1 = 0.9): 1.128 ± 0.2 mPa·s | viscosity (333.15 K, x1 = 1): 1.093 ± 0.2 mPa·s | mass density (333.15 K, x1 = 0.101): 771.08 ± 0.62 kg/m3 | mass density (333.15 K, x1 = 0.2): 771.75 ± 0.62 kg/m3 | mass density (333.15 K, x1 = 0.301): 772.36 ± 0.62 kg/m3 | mass density (333.15 K, x1 = 0.4): 772.81 ± 0.62 kg/m3 | mass density (333.15 K, x1 = 0.5): 772.96 ± 0.62 kg/m3 | mass density (333.15 K, x1 = 0.599): 772.93 ± 0.62 kg/m3 | mass density (333.15 K, x1 = 0.7): 772.58 ± 0.62 kg/m3 | mass density (333.15 K, x1 = 0.8): 772.09 ± 0.62 kg/m3 | mass density (333.15 K, x1 = 0.9): 771.38 ± 0.62 kg/m3 | mass density (333.15 K, x1 = 1): 770.4 ± 0.62 kg/m3 | mass density (343.15 K, x1 = 0.101): 762.05 ± 0.62 kg/m3 | mass density (343.15 K, x1 = 0.2): 762.45 ± 0.62 kg/m3 | mass density (343.15 K, x1 = 0.301): 762.79 ± 0.62 kg/m3 | mass density (343.15 K, x1 = 0.4): 762.98 ± 0.62 kg/m3 | mass density (343.15 K, x1 = 0.5): 762.91 ± 0.62 kg/m3 | mass density (343.15 K, x1 = 0.599): 762.66 ± 0.62 kg/m3 | mass density (343.15 K, x1 = 0.7): 762.18 ± 0.62 kg/m3 | mass density (343.15 K, x1 = 0.8): 761.63 ± 0.62 kg/m3 | mass density (343.15 K, x1 = 0.9): 760.84 ± 0.62 kg/m3 | mass density (343.15 K, x1 = 1): 759.8 ± 0.62 kg/m3 | mass density (353.15 K, x1 = 1): 749.13 ± 1 kg/m3 | mass density (363.15 K, x1 = 1): 738.77 ± 1 kg/m3
